Measurements published in PubChem BioAssay AID2060326 (Molecular Pharmacology Branch, DTP, NCI, 2025).

System: MDA-MB-468 multi-cell spheroids, viability
Experiment: Anticancer human tumor MDA-MB-468 cell line growth inhibition [IpAb];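 note: spheroids exposed to agents for seven days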;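 for viability, T/C: 100% = DMSO vehicle control viability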
Details: for IC50: curve of first compound; for viability, T/C: stronger effect = lower value
How it was run: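 Combinations with ipatasertib or abemaciclib were tested on tumour spheroids holding HUVEC (25%) and MSC (15%) alongside 60% malignant cells. Top concentration was at or near clinical Cmax (10 microM if undefined), descending in half-log steps.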

[1] = second compound 0.01 µM, first compound 0.0316 µM
[2] = second compound 0.01 µM, first compound 0.1 µM
[3] = second compound 0.0316 µM, first compound 0.0316 µM
[4] = second compound 0.0316 µM, first compound 0.1 µM
[5] = second compound 0.1 µM, first compound 0.0316 µM
[6] = second compound 0.1 µM, first compound 0.1 µM
[7] = second compound 0.316 µM, first compound 0.0316 µM
[8] = second compound 0.316 µM, first compound 0.1 µM
[9] = second compound 1 µM, first compound 0.0316 µM
[10] = second compound 1 µM, first compound 0.1 µM

SMILES: Cn1ncnc1[C@H]1c2n[nH]c(=O)c3cc(F)cc(c23)N[C@@H]1c1ccc(F)cc1 + CCN1CCN(Cc2ccc(Nc3ncc(F)c(-c4cc(F)c5nc(C)n(C(C)C)c5c4)n3)nc2)CC1
- IC50 (second compound 0.01 µM): > 0.1 µM
- IC50 (second compound 0.0316 µM): > 0.1 µM
- IC50 (second compound 0.1 µM): > 0.1 µM
- IC50 (second compound 0.316 µM): > 0.1 µM
- IC50 (second compound 1 µM): > 0.1 µM
- viability, T/C (second compound 0.01 µM, first compound 0.000316 µM): 89%
- viability, T/C (second compound 0.01 µM, first compound 0.001 µM): 91.1%
- viability, T/C (second compound 0.01 µM, first compound 0.00316 µM): 89.2%
- viability, T/C (second compound 0.01 µM, first compound 0.01 µM): 82.8%
- viability, T/C [1]: 89.6%
- viability, T/C [2]: 63.1%
- viability, T/C (second compound 0.0316 µM, first compound 0.000316 µM): 89.1%
- viability, T/C (second compound 0.0316 µM, first compound 0.001 µM): 82.4%
- viability, T/C (second compound 0.0316 µM, first compound 0.00316 µM): 92%
- viability, T/C (second compound 0.0316 µM, first compound 0.01 µM): 73.2%
- viability, T/C [3]: 91.6%
- viability, T/C [4]: 54%
- viability, T/C (second compound 0.1 µM, first compound 0.000316 µM): 92%
- viability, T/C (second compound 0.1 µM, first compound 0.001 µM): 103%
- viability, T/C (second compound 0.1 µM, first compound 0.00316 µM): 94.9%
- viability, T/C (second compound 0.1 µM, first compound 0.01 µM): 97.5%
- viability, T/C [5]: 78.5%
- viability, T/C [6]: 63.7%
- viability, T/C (second compound 0.316 µM, first compound 0.000316 µM): 92.8%
- viability, T/C (second compound 0.316 µM, first compound 0.001 µM): 85%
- viability, T/C (second compound 0.316 µM, first compound 0.00316 µM): 86.6%
- viability, T/C (second compound 0.316 µM, first compound 0.01 µM): 90.2%
- viability, T/C [7]: 78.2%
- viability, T/C [8]: 70.1%
- viability, T/C (second compound 1 µM, first compound 0.000316 µM): 86.7%
- viability, T/C (second compound 1 µM, first compound 0.001 µM): 83.5%
- viability, T/C (second compound 1 µM, first compound 0.00316 µM): 82.3%
- viability, T/C (second compound 1 µM, first compound 0.01 µM): 68.2%
- viability, T/C [9]: 66.6%
- viability, T/C [10]: 68.9%

SMILES: Cn1nccc1Nc1nccc(-c2ccn(C(CO)c3ccc(Cl)c(F)c3)c(=O)c2)n1 (stereo not given) + CCN1CCN(Cc2ccc(Nc3ncc(F)c(-c4cc(F)c5nc(C)n(C(C)C)c5c4)n3)nc2)CC1
- IC50 (second compound 0.01 µM): 4.35 µM
- IC50 (second compound 0.0316 µM): 4.7 µM
- IC50 (second compound 0.1 µM): 3.83 µM
- IC50 (second compound 0.316 µM): 4.19 µM
- IC50 (second compound 1 µM): 4.42 µM
- viability, T/C [1]: 92%
- viability, T/C [2]: 83%
- viability, T/C (second compound 0.01 µM, first compound 0.316 µM): 86%
- viability, T/C (second compound 0.01 µM, first compound 1 µM): 77.7%
- viability, T/C (second compound 0.01 µM, first compound 3.16 µM): 70%
- viability, T/C (second compound 0.01 µM, first compound 10 µM): 3.11%
- viability, T/C [3]: 93.3%
- viability, T/C [4]: 77.9%
- viability, T/C (second compound 0.0316 µM, first compound 0.316 µM): 71%
- viability, T/C (second compound 0.0316 µM, first compound 1 µM): 84.6%
- viability, T/C (second compound 0.0316 µM, first compound 3.16 µM): 73.1%
- viability, T/C (second compound 0.0316 µM, first compound 10 µM): 6.23%
- viability, T/C [5]: 93.6%
- viability, T/C [6]: 87.5%
- viability, T/C (second compound 0.1 µM, first compound 0.316 µM): 86.2%
- viability, T/C (second compound 0.1 µM, first compound 1 µM): 83.1%
- viability, T/C (second compound 0.1 µM, first compound 3.16 µM): 58.5%
- viability, T/C (second compound 0.1 µM, first compound 10 µM): 5.62%
- viability, T/C [7]: 104%
- viability, T/C [8]: 92.2%
- viability, T/C (second compound 0.316 µM, first compound 0.316 µM): 89.2%
- viability, T/C (second compound 0.316 µM, first compound 1 µM): 78.7%
- viability, T/C (second compound 0.316 µM, first compound 3.16 µM): 68.2%
- viability, T/C (second compound 0.316 µM, first compound 10 µM): 9.01%
- viability, T/C [9]: 86.5%
- viability, T/C [10]: 78.8%
- viability, T/C (second compound 1 µM, first compound 0.316 µM): 74.5%
- viability, T/C (second compound 1 µM, first compound 1 µM): 85.9%
- viability, T/C (second compound 1 µM, first compound 3.16 µM): 64.2%
- viability, T/C (second compound 1 µM, first compound 10 µM): 15.3%
